Experiments:
[1] = target: T1, rat mGlu2 receptor (Rattus norvegicus, UniProt P31421); test: [3H]-LY354740 binding on mGlu2 transfected CHO cell membranes; conditions: inhibition of 10 nM [3H]-LY354740 binding, membranes of CHO cells transfected with rat mGlu2, room temperature, 1 hour
T1 construct: expressed in transfected cells; membranes prepared
Outline: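 Membranes from CHO cells stably expressing rat mGlu2 (25 μg protein/ml) incubated 1 hour at room temperature with 10 nM [3H]-LY354740 and test compound in 50 mM Tris-HCl, 2 mM MgCl2, pH 7.4. Non-specific binding defined with 10 μM DCG IV; bound radioactivity counted after filtration. IC50 from four-parameter logistic fit.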

T1 sequence (P31421 19-872): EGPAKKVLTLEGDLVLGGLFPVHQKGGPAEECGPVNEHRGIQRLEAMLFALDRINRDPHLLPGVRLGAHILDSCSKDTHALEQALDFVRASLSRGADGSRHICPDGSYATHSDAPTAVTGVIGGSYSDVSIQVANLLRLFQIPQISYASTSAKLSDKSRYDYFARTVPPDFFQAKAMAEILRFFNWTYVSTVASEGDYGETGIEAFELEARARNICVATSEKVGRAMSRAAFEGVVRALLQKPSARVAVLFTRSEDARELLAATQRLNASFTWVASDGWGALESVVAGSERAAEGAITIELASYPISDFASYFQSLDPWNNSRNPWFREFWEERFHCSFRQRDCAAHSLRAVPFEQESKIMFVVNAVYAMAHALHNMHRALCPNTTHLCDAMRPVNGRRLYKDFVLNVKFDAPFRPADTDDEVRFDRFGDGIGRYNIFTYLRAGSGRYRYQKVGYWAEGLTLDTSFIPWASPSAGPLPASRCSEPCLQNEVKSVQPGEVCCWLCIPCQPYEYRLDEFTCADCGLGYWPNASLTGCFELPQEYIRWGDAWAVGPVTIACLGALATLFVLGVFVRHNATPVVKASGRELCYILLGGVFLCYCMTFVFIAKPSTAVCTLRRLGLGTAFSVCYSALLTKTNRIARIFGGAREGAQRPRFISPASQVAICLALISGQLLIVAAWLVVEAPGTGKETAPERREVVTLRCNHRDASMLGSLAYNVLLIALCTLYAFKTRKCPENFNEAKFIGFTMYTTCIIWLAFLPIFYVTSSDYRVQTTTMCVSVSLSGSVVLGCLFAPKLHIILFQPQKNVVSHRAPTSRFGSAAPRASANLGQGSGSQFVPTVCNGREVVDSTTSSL

| melting point | Ki [1] | SMILES |
| --- | --- | --- |
| 184 °C | 21 nM | O=S(=O)(c1cccc(-c2cc(-c3nc(-c4ccc(C(F)(F)F)cc4)cc(C(F)(F)F)n3)ccn2)c1)N1CCCC1 [Example 390, 2-{2-[3-(Pyrrolidine-1-sulfonyl)-phenyl]-pyridin-4-yl}-4-trifluoromethyl-6-(4-trifluoromethyl-phenyl)-pyrimidine] |
| 208 °C | 3 nM | NS(=O)(=O)c1cccc(-c2cccc(-c3nc(-c4ccc(F)cc4)cc(C(F)(F)F)n3)c2)c1 [Example 394, 3′-[4-(4-Fluoro-phenyl)-6-trifluoromethyl-pyrimidin-2-yl]-biphenyl-3-sulfonic acid amide] |
| 198 °C | 3 nM | Cc1cc(-c2ccc(C(F)(F)F)cc2)cc(-c2cccc(-c3cccc(S(=O)(=O)NCC(F)(F)F)c3)n2)n1 [Example 445, 3-[6′-Methyl-4′-(4-trifluoromethyl-phenyl)-[2,2′]bipyridinyl-6-yl]-N-(2,2,2-trifluoro-ethyl)-benzenesulfonamide] |
| 223.5 °C | 16 nM | CCOc1cc(-c2cc(C(F)(F)F)nc(-c3ccnc(-c4cccc(S(N)(=O)=O)c4)c3)n2)ccc1C(F)(F)F [Example 452, 3-{4-[4-(3-Ethoxy-4-trifluoromethyl-phenyl)-6-trifluoromethyl-pyrimidin-2-yl]-pyridin-2-yl}-benzenesulfonamide] |
